Test results reported in patent US20180020668A1, “Agricultural Mixtures” (priority 2015, published 2018).

Tests used:
Assay type in all cases: in vivo
Rhizoctonia = assay: Corn emergence, vigor and pest infestation study (Example 1, two plantings); details: for Plant Emergence: corn, field inoculated with Rhizoctonia, seed treatment, rates per treatment in mg ai/seed; for Plant Emergence / Pest Severity / Pest Incidence / Plant Vigor: about 30 DAP; for Pest Severity: percentage of infected plants; for Pest Incidence / Plant Vigor: rated on a scale of 1 to 9; for Plant Yield: about six months after planting
corn [1] = assay: Corn plant stand establishment and yield study (Example 2); details: seed treatment, rates in mg active[s] per seed
Method: A study was conducted in order to determine the effects of seed treatments on the number of corn plants per acre and yield. One acre was planted with seeds treated as indicated below in a randomized block design. Treatments were applied to the seeds in a manner known by those of skill in the art. The number of plants was determined for each treatment on four different days before harvest. After harvest, the yield of the plants was determined. The results of this study can be seen below in Tables 2 and 3.

corn [2] = assay: Another corn plant stand establishment and yield study (Example 3); details: seed treatment, rates in mg active[s] per seed
Method: Another study was conducted in order to determine the effects of seed treatments on the number of corn plants per acre and yield. The study design was the same as the study described in Example 1. The results of this study can be seen below in Tables 3 and 4.

CN1COCN(Cc2cnc(Cl)s2)C1=N[N+](=O)[O-] [Thiamethoxam, 3-[(2-Chloro-1,3-thiazol-5-yl)methyl]-5-methyl-N-nitro-1,3,5-oxadiazinan-4-imine]
Plant Emergence (Rhizoctonia; first planting): 19800 plants per acre
Plant Emergence (Rhizoctonia; second planting): 25450 plants per acre
Pest Severity (Rhizoctonia; first planting): 41.3%
Pest Incidence (Rhizoctonia; first planting): 3.8
Plant Vigor (Rhizoctonia; first planting): 4.0
Plant Yield (Rhizoctonia; first planting): 60.8 Bu/A
Pest Severity (Rhizoctonia; second planting): 16.3%
Pest Incidence (Rhizoctonia; second planting): 6.5
Plant Vigor (Rhizoctonia; second planting): 5.5
Plant Yield (Rhizoctonia; second planting): 106.7 Bu/A
Corn Plant Stand - Number of Plants Per Acre (corn [1]; 34 DAP): 22052 Plants Per Acre
Corn Plant Stand - Number of Plants Per Acre (corn [1]; 116 DAP): 20010 Plants Per Acre
Corn Plant Yield (corn [2]): 172 Bushels/Acre
